Measurements as given in paper PMC11841048 (ACS Infectious Diseases, 2025).
“And” between values parts separate entries of the source, which are not always exact repeats. Equal entries are not always repeated. Where two headings read alike, the source gives them in different places.

Legend:
[1] = target: T1, BaIMPDH (wild-type) (Bacillus anthracis, UniProt A0A6L8P2U9); assay: biochemical; format: biochemical
[2] = target: T1, BaIMPDH (wild-type); assay: biochemical; settings: Ki,app
[3] = target: T1, BaIMPDH (wild-type); assay: biochemical
[4] = target: BaIMPDH (Bacillus anthracis, UniProt A0A6L8P2U9); assay: biochemical; format: biochemical
[5] = system: BaIMPDH (wild-type); settings: cited from earlier work
[6] = target: T1, BaIMPDH (wild-type); format: biochemical
[7] = target: SaIMPDH (Staphylococcus aureus, UniProt Q6GJQ7); assay: biochemical
[8] = target: SpIMPDH (Streptococcus pyogenes, UniProt P0C0H6); assay: biochemical
[9] = target: CjIMPDH (Campylobacter jejuni, UniProt Q0P9J4, DEL92-194/T195G); assay: biochemical; settings: Ki,app
[10] = target: CpIMPDH (Cryptosporidium parvum, UniProt Q8T6T2); assay: biochemical
[11] = system: Ba-, Cj-, and ClpIMPDH; format: biochemical
[12] = target: T1, BaIMPDH (wild-type); assay: biochemical; remark: listed apart in the source
[13] = k–9/k9, inhibitor dissociation constant from E-XMP*
[14] = k–8/k8, inhibitor dissociation constant from E·IMP

T1 sequence (A0A6L8P2U9 221-487, added parts left off): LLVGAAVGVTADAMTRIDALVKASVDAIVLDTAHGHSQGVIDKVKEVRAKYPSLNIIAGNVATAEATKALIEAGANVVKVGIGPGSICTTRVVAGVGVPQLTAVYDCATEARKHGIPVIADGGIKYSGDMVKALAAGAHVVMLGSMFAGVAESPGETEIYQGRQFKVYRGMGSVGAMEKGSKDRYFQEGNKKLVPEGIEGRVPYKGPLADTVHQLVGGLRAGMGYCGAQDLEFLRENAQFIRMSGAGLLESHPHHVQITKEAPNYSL
Chain of BaIMPDH (A0A6L8P2U9 221-487, added parts left off): as above
Chain of SpIMPDH (P0C0H6 whole entry): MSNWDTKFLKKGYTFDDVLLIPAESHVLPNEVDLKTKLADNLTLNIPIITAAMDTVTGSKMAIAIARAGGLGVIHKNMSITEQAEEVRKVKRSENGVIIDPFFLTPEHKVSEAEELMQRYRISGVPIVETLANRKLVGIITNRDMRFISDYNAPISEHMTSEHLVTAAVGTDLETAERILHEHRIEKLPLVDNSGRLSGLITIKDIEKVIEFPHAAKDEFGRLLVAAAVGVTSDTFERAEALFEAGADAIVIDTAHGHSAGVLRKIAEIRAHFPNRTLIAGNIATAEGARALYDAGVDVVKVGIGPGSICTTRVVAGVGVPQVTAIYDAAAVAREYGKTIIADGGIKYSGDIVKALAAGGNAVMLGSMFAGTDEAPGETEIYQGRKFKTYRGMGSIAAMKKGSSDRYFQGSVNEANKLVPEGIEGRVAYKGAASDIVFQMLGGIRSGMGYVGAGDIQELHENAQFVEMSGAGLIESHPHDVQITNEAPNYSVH
Chain of SaIMPDH (Q6GJQ7 whole entry): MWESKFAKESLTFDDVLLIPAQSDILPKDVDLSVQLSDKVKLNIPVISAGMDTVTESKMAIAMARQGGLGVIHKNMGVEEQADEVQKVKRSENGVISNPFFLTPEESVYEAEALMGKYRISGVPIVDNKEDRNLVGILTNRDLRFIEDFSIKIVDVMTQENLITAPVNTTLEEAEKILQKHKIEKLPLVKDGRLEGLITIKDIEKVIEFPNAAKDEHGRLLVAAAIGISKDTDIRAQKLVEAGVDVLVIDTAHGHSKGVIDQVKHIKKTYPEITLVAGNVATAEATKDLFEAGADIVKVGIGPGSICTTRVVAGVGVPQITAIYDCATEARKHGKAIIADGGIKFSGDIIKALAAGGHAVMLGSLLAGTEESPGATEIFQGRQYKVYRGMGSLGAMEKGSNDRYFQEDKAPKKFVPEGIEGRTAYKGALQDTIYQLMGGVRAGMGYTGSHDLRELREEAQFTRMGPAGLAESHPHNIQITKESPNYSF
Chain of CpIMPDH (Q8T6T2 whole entry): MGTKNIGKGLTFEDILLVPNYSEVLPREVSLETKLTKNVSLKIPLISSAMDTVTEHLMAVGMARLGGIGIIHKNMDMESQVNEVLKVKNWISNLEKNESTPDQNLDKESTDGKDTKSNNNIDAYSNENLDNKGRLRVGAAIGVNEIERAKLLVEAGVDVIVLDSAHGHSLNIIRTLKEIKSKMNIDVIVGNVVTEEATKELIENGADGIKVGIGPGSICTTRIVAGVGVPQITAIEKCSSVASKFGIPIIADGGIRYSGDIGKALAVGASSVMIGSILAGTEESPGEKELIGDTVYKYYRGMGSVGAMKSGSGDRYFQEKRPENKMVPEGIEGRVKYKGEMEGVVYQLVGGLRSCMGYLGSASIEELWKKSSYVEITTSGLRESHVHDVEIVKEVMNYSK

C[C@@H](Oc1cc[n+]([O-])c2ccccc12)c1cn(-c2ccc(Cl)cc2)nn1 [A110]
Kd ([1]; k–8/k8): 1.7 µM | Kd ([1]; k–9/k9): 0.085 µM | kon at 6 µM ([1]; read-out: k8 (inhibitor association with E·IMP)): 9.33e+06 M⁻¹ s⁻¹ | kon ([1]; read-out: k9 (inhibitor association with E-XMP*)): 3.52e+06 M⁻¹ s⁻¹ | koff ([1]; read-out: k–8 (inhibitor dissociation from E·IMP·I)): 15.6 s⁻¹ | koff ([1]; read-out: k–9 (inhibitor dissociation from E-XMP*·I)): 0.3 s⁻¹ | Ki [2]: 0.081 µM and 0.059 µM | Kd [3, 13]: 0.065 µM

Nc1ncnc2c1ncn2[C@@H]1O[C@H](COP(=O)(O)OP(=O)(O)O)[C@@H](O)[C@H]1O [ADP]
Ki ([4]; read-out: Ki,app): 6200 µM

O=C(Cn1c(-c2ccccn2)nc2ccccc21)Nc1ccc2ccccc2c1 [C91]
fold more potent inhibitor of BaIMPDH [5]: 10 fold | k-9 [3]: 0.0976 | Kd [3, 14]: 0.28 µM | Kd [3, 13]: 0.11 µM | koff ([3]; read-out: k-8): 0.239 s⁻¹ | koff ([3]; read-out: k-9): 0.0844 s⁻¹

Cn1nc(CC(=O)Nc2ccc3oc4c(c3c2)CCCC4)c2ccccc2c1=O [D67]
Ki [2]: 0.698 µM and 0.671 µM | Kd [3, 14]: 1.1 µM | Kd [3, 13]: 0.42 µM

NC(=O)C1=CN([C@@H]2O[C@H](COP(=O)(O)OP(=O)(O)OC[C@H]3O[C@@H](n4cnc5c(N)ncnc54)[C@H](O)[C@@H]3O)[C@@H](O)[C@H]2O)C=CC1 [NADH]
k4 (NADH release) [1]: >446 s^–1 | k–4 (NADH association) [1]: >3.8 μM^–1 s^–1 | Kd ([1]; read-out: k4/k–4): 120 µM

NC(=O)c1ccc[n+]([C@@H]2O[C@H](COP(=O)([O-])OP(=O)(O)OC[C@H]3O[C@@H](n4cnc5c(N)ncnc54)[C@H](O)[C@@H]3O)[C@@H](O)[C@H]2O)c1 [NAD^+]
apparent Michaelis constant for NAD+, KmB [6]: 683 [ 601 , 779 ] µM | Ki ([6]; read-out: Ki(NAD^+)): 9600 ± 2100 µM | Km ([6]; read-out: Km(NAD^+)): 590 ± 100 µM | k2 (NAD^+ association with E·IMP) [1]: 0.0309 μM^–1 s^–1 | k7 (NAD^+ association with E-XMP*) [1]: 0.00398 μM^–1 s^–1 | k–2 (NAD^+ dissociation from E·IMP·NAD^+) [1]: 11.7 s^–1 | k–7 (NAD^+ dissociation from E-XMP*·NAD^+) [1]: 31.8 s^–1 | Kd ([1]; read-out: k–2/k2): 380 µM | Kd ([1]; read-out: k–7/k7): 8000 µM

C/C(=N\O)c1cccc(C(C)(C)NC(=O)Nc2ccc(Cl)c(C(N)=O)c2)c1 [P32]
Ki [7]: 0.023 ± 0.01 µM | Ki [8]: 0.164 ± 0.01 µM | Ki [9]: 0.095 ± 0.005 µM | Ki [2]: 0.052 µM and 0.047 µM | Ki [10]: 0.005 ± 0.002 µM

C/C(=N\OCCN)c1cccc(C(C)(C)NC(=O)Nc2ccc(Cl)c([N+](=O)[O-])c2)c1 [P131]
Ki [2]: 0.094 µM | Kd [3, 14]: 0.11 µM | Kd [3, 13]: 0.061 µM

C=C(C)c1cccc(C(C)(C)NC(=O)Nc2ccc(Cl)c(NC3OCC(O)C(O)C3O)c2)c1 (stereo not shown) [P176]
Ki [9]: 0.177 µM and 0.077 µM | Ki [2]: 0.016 µM

C=C(C)c1cccc(C(C)(C)NC(=O)Nc2ccc(Cl)c(OC3OC(CO)C(O)C3O)c2)c1 (stereo not shown) [P178]
difference in affinity across the three enzymes [11]: > 5 fold | Ki [9]: 0.097 µM | Ki [2]: 0.012 µM

C/C(=N\O)c1cccc(C(C)(C)NC(=O)Nc2ccc(Cl)c(-c3nc(C(F)(F)F)cs3)c2)c1 [P182]
Ki [9]: 0.032 ± 0.006 µM | Ki [2]: 0.008 µM

CC(C)(NC(=O)Nc1ccc(Cl)cc1)c1cccc(/C(N)=N/O)c1 [P200]
difference in affinity across the three enzymes [11]: > 5 fold | Ki [9]: 0.145 ± 0.04 µM | Ki [2]: 0.016 µM

C=C(C)c1cccc(C(C)(C)NC(=O)Nc2ccc(Cl)c(NC3OC[C@@H](O)[C@H](O)[C@@H]3O)c2)c1 (stereo partly shown) [P221]
Ki [9]: 0.046 µM | Ki [2]: 0.02 µM

C=C(C)c1cccc(C(C)(C)NC(=O)Nc2ccc(Cl)c(OCC(=O)O)c2)c1 [P225]
Ki [9]: 0.02 ± 0.01 µM | Ki [2]: 0.004 µM and 0.00043 µM

C[C@H](Oc1cccc2ccccc12)C(=O)Nc1ccc2oc(-c3ccncc3)nc2c1 [Q21]
Ki [2]: 0.063 µM and 0.023 µM | preference for E-XMP* over E·IMP [3]: same affinity for both enzyme forms | Kd [3, 14]: 0.038 µM | Kd [3, 13]: 0.043 µM

O=c1[nH]c(=O)c2ncn([C@@H]3O[C@H](COP(=O)(O)O)[C@@H](O)[C@H]3O)c2[nH]1 [XMP, xanthosine 5′-monophosphate]
Kd [12]: 404 µM

NC(=O)c1csc([C@@H]2O[C@H](CO)[C@@H](O)[C@H]2O)n1 [tiazofurin]
Ki [4]: 620 µM
